Experimental data as given in patent US20250360235A1, “RADI[…] AND METHOD FOR RADIOLABELLING” (Telix Innovations SA, priority 2024, published 2025).

Assay: pH of [68Ga]PSMA-11 solution (acceptance 4.0-5.0)
Format: physicochemical
Conditions: for pH of the gallium-68 labelled PSMA-11 solution: immediately after the radiolabelling procedure
Method: (§1) 100 μl of the ascorbic acid solution (equivalent to 25 mg ascorbic acid) was taken from vial 3, and was filtered through a 5 μm filter needle. The sodium ascorbate solution was subsequently added to vail 2, and mixed thoroughly. The obtained content of vial 2 was added to vial 1, and again mixed thoroughly. To this obtained vail 1, the eluate, comprising the gallium-68, was added to obtain a gallium-68 labelled PSMA-11 solution. Optionally, a 2.5 ml 0.9% sodium chloride solution may be added to increase the volume and/or to amend the osmolality to be under 1000 mOsm/kg.
The pH of the gallium-68 labelled PSMA-11 solution was 4.5 immediately after the radiolabelling procedure and was unchanged after 4 hours.
as §1, with “a Gallium-68” for “a gallium-68”, “a” for “a 2.5 ml 0.9%”, “volume of the obtained Gallium-68 labelled PSMA-11 solution” for “volume”, “mOsm/kg. The pH of the gallium-68 labelled PSMA-11 solution was 4.5 immediately after the radiolabelling procedure and was unchanged after 4 hours.” for “mOsm/kg.”
as §1, with “a Gallium-68” for “a gallium-68”, “a” for “a 2.5 ml 0.9%”, “volume of the obtained Gallium-68 labelled PSMA-11 solution” for “volume”, “mOsm/kg. The pH of the gallium-68 labelled PSMA-11 solution was 4.5 immediately after the radiolabelling procedure and was unchanged after 6 hours.” for “mOsm/kg.”
Table 1 to Table 5 show the results of various radiolabelling experiments on radiochemical purity and the chelation yield. The radiolabelling experiments in the tables are carried out as described in: • Example 1 for when the gallium-68 source is GE Liquid target generator and EZAG GalliaPharm generator; • Example 2 for when the gallium-68 source is IRE Galli Eo generator; • Example 3 for when the gallium-68 source is GE solid target generator;
However, the experiments were carried out with the amount of ascorbic acid as indicated in the Tables 1 to 5, and the activity as indicated in the Tables 1 to 5. Radiochemical purities were measured at various times (T0, T1, T4, T6) after the radiolabelled experiments have been conducted.
The kits of Example 1, Example 2 or Example 3, with amounts of ascorbic acid as set out in Table 7 were used in the experiments for the ascorbic acid bracketing matrix. Three strengths of [^68Ga]Ga-PSMA-11 will be tested, i.e. 50 mCi/ml, 7 mCi/ml and 1 mCi/ml. Radiochemical purity was determined at different time points (TO, T1, T4 or T6), as set out in Table 7.

O=C([O-])CN(CCN(CC(=O)[O-])Cc1cc(CCC(=O)NCCCCCC(=O)NCCCC[C@H](NC(=O)N[C@@H](CCC(=O)O)C(=O)O)C(=O)O)ccc1[O-])Cc1cc(CCC(=O)O)ccc1[O-].[68Ga+3].[OH3+] [[^68Ga]PSMA-11, gallium-68 radiolabelled Glu-urea-Lys-HBED-CC (gozetotide or PSMA-11)]
pH (1 mg ascorbic acid, 58.7-71.1 mCi, 7.47-8.99 mCi/mL, GE Liquid target, n=3, T0): C (C = conforms to specifications)
pH (1 mg ascorbic acid, 58.7-71.1 mCi, 7.47-8.99 mCi/mL, GE Liquid target, n=3, T4 (4 h)): C (C = conforms to specifications)
pH (2.5 mg ascorbic acid, 49.9-76.9 mCi, 6.31-9.72 mCi/mL, GE Liquid target, n=3, T0): C (C = conforms to specifications)
pH (2.5 mg ascorbic acid, 49.9-76.9 mCi, 6.31-9.72 mCi/mL, GE Liquid target, n=3, T4 (4 h)): C (C = conforms to specifications)
pH (5 mg ascorbic acid, 60-69.9 mCi, 7.61-8.81 mCi/mL, 3 × GE Liquid Target, 3 × EZAG GalliaPharm, n=6, T0): C (C = conforms to specifications)
pH (5 mg ascorbic acid, 60-69.9 mCi, 7.61-8.81 mCi/mL, 3 × GE Liquid Target, 3 × EZAG GalliaPharm, n=6, T4 (4 h)): C (C = conforms to specifications)
pH (10 mg ascorbic acid, 458-500 mCi, 43.4-47.3 mCi/mL, GE Solid Target, n=3, T0): C (C = conforms to specifications)
pH (10 mg ascorbic acid, 458-500 mCi, 43.4-47.3 mCi/mL, GE Solid Target, n=3, T4 (4 h)): C (C = conforms to specifications)
pH (10 mg ascorbic acid, 514-520 mCi, 49.0-66.1 mCi/mL, GE Solid Target, n=3, T0): C (C = conforms to specifications)
pH (10 mg ascorbic acid, 514-520 mCi, 49.0-66.1 mCi/mL, GE Solid Target, n=3, T6 (6 h)): C (C = conforms to specifications)
pH (15 mg ascorbic acid, 10.0-18.4 mCi, 0.95-1.77 mCi/mL, 1 × EZAG GalliaPharm, 2 × IRE Galli Eo, n=3, T0): C (C = conforms to specifications)
pH (15 mg ascorbic acid, 10.0-18.4 mCi, 0.95-1.77 mCi/mL, 1 × EZAG GalliaPharm, 2 × IRE Galli Eo, n=3, T1 (1 h)): C (C = conforms to specifications)
pH (15 mg ascorbic acid, 23.7-47.6 mCi, 2.26-4.53 mCi/mL, 1 × EZAG GalliaPharm, 2 × IRE Galli Eo, n=3, T0): C (C = conforms to specifications)
pH (15 mg ascorbic acid, 23.7-47.6 mCi, 2.26-4.53 mCi/mL, 1 × EZAG GalliaPharm, 2 × IRE Galli Eo, n=3, T4 (4 h)): C (C = conforms to specifications)
pH (20 mg ascorbic acid, 514-544 mCi, 48.3-51.9 mCi/mL, GE Solid Target, n=2, T0): C (C = conforms to specifications)
pH (20 mg ascorbic acid, 514-544 mCi, 48.3-51.9 mCi/mL, GE Solid Target, n=2, T6 (6 h)): C (C = conforms to specifications)
pH (25 mg ascorbic acid, 10.2 mCi, 0.97 mCi/mL, IRE Galli Eo, n=1, T0): C (C = all results conform to specifications)
pH (25 mg ascorbic acid, 10.2 mCi, 0.97 mCi/mL, IRE Galli Eo, n=1, T1 (1 h)): C (C = all results conform to specifications)
pH (25 mg ascorbic acid, 19.5-20.0 mCi, 1.85-1.90 mCi/mL, EZAG GalliaPharm, n=2, T0): C (C = all results conform to specifications)
pH (25 mg ascorbic acid, 19.5-20.0 mCi, 1.85-1.90 mCi/mL, EZAG GalliaPharm, n=2, T1 (1 h)): C (C = all results conform to specifications)
pH (25 mg ascorbic acid, 23.3-24 mCi, 2.22-2.28 mCi/mL, IRE Galli Eo, n=2, T0): C (C = all results conform to specifications)
pH (25 mg ascorbic acid, 23.3-24 mCi, 2.22-2.28 mCi/mL, IRE Galli Eo, n=2, T4 (4 h)): C (C = all results conform to specifications)
pH (25 mg ascorbic acid, 46.0-46.1 mCi, 4.38-4.39 mCi/mL, EZAG GalliaPharm, n=2, T0): C (C = all results conform to specifications)
pH (25 mg ascorbic acid, 46.0-46.1 mCi, 4.38-4.39 mCi/mL, EZAG GalliaPharm, n=2, T4 (4 h)): C (C = all results conform to specifications)
pH (50 mg ascorbic acid, 560 mCi, 71.1 mCi/mL, GE Solid Target, n=1, T0): C (C = conforms to specifications)
pH (50 mg ascorbic acid, 560 mCi, 71.1 mCi/mL, GE Solid Target, n=1, T6 (6 h)): C (C = conforms to specifications)
pH of the gallium-68 labelled PSMA-11 solution (Example 1 kit (25 mg ascorbic acid; EZAG GalliaPharm or GE Liquid, 60-70 mCi)): 4.5
pH of the gallium-68 labelled PSMA-11 solution, change (Example 1 kit, after 4 hours): unchanged
pH of the gallium-68 labelled PSMA-11 solution (Example 2 kit (25 mg ascorbic acid; IRE Galli Eo, 60-70 mCi)): 4.5
pH of the gallium-68 labelled PSMA-11 solution, change (Example 2 kit, after 4 hours): unchanged
pH of the gallium-68 labelled PSMA-11 solution (Example 3 kit (25 mg ascorbic acid; solid target, 350-600 mCi)): 4.5
pH of the gallium-68 labelled PSMA-11 solution, change (Example 3 kit, after 6 hours): unchanged
pH (bracketing ~1 mCi/mL, 18.75 mg ascorbic acid, 8.9-11.5 mCi, 0.85-1.09 mCi/mL, IRE Galli Eo, n=2, T0): C (C = Conforms to specifications)
pH (bracketing ~1 mCi/mL, 18.75 mg ascorbic acid, 8.9-11.5 mCi, 0.85-1.09 mCi/mL, IRE Galli Eo, n=2, T1 (1 h)): C (C = Conforms to specifications)
pH (bracketing ~1 mCi/mL, 25 mg ascorbic acid, 8.8-12.7 mCi, 0.84-1.21 mCi/mL, 2 × IRE Galli Eo, n=2, T0): C (C = Conforms to specifications)
pH (bracketing ~1 mCi/mL, 25 mg ascorbic acid, 8.8-12.7 mCi, 0.84-1.21 mCi/mL, 2 × IRE Galli Eo, n=2, T1 (1 h)): C (C = Conforms to specifications)
pH (bracketing ~1 mCi/mL, 31.25 mg ascorbic acid, 15.2-26.9 mCi, 1.44-2.54 mCi/mL, EZAG GalliaPharm, n=2, T0): C (C = Conforms to specifications)
pH (bracketing ~1 mCi/mL, 31.25 mg ascorbic acid, 15.2-26.9 mCi, 1.44-2.54 mCi/mL, EZAG GalliaPharm, n=2, T1 (1 h)): C (C = Conforms to specifications)
pH (bracketing ~7 mCi/mL, 18.75 mg ascorbic acid, 51.0-58.0 mCi, 5.55-6.5 mCi/mL, IRE Galli Eo, n=2, T0): C (C = Conforms to specifications)
pH (bracketing ~7 mCi/mL, 18.75 mg ascorbic acid, 51.0-58.0 mCi, 5.55-6.5 mCi/mL, IRE Galli Eo, n=2, T4 (4 h)): C (C = Conforms to specifications)
pH (bracketing ~7 mCi/mL, 25 mg ascorbic acid, 51.6-74.4 mCi, 4.56-6.92 mCi/mL, 3 × GE Liquid Target, 3 × IRE Galli Eo, 3 × EZAG GalliaPharm, n=9, T0): C (C = Conforms to specifications)
pH (bracketing ~7 mCi/mL, 25 mg ascorbic acid, 51.6-74.4 mCi, 4.56-6.92 mCi/mL, 3 × GE Liquid Target, 3 × IRE Galli Eo, 3 × EZAG GalliaPharm, n=9, T4 (4 h)): C (C = Conforms to specifications)
pH (bracketing ~7 mCi/mL, 31.25 mg ascorbic acid, 61.5-62.0 mCi, 5.85-5.88 mCi/mL, EZAG GalliaPharm, n=2, T0): C (C = Conforms to specifications)
pH (bracketing ~7 mCi/mL, 31.25 mg ascorbic acid, 61.5-62.0 mCi, 5.85-5.88 mCi/mL, EZAG GalliaPharm, n=2, T4 (4 h)): C (C = Conforms to specifications)
pH (bracketing ~50 mCi/mL, 20 mg ascorbic acid, 514-544 mCi, 48.3-51.9 mCi/mL, GE Solid Target, n=2, T0): C (C = Conforms to specifications)
pH (bracketing ~50 mCi/mL, 20 mg ascorbic acid, 514-544 mCi, 48.3-51.9 mCi/mL, GE Solid Target, n=2, T6 (6 h)): C (C = Conforms to specifications)
pH (bracketing ~50 mCi/mL, 25 mg ascorbic acid, 537-551 mCi, 50.2-51.6 mCi/mL, GE Solid Target, n=3, T0): C (C = Conforms to specifications)
pH (bracketing ~50 mCi/mL, 25 mg ascorbic acid, 537-551 mCi, 50.2-51.6 mCi/mL, GE Solid Target, n=3, T6 (6 h)): C (C = Conforms to specifications)
pH (bracketing ~50 mCi/mL, 31.25 mg ascorbic acid, 500-544 mCi, 48.1-51.7 mCi/mL, GE Solid Target, n=2, T0): C (C = Conforms to specifications)
pH (bracketing ~50 mCi/mL, 31.25 mg ascorbic acid, 500-544 mCi, 48.1-51.7 mCi/mL, GE Solid Target, n=2, T6 (6 h)): C (C = Conforms to specifications)
pH (control, 0 mg ascorbic acid, 70 mCi, GE Solid Target, n=1, T0): C (C = all results conform to specifications)
pH (control, 0 mg ascorbic acid, 70 mCi, GE Solid Target, n=1, T4 (4 h)): C (C = all results conform to specifications)
pH (validation batches, 25 mg ascorbic acid, 51.6-62.7 mCi, 4.56-5.88 mCi/mL, IRE Galli Eo, n=3, T0): C (C = all results conform to specifications)
pH (validation batches, 25 mg ascorbic acid, 51.6-62.7 mCi, 4.56-5.88 mCi/mL, IRE Galli Eo, n=3, T4 (4 h)): C (C = all results conform to specifications)
pH (validation batches, 25 mg ascorbic acid, 53.3-74.4 mCi, 5.03-6.92 mCi/mL, GE Liquid target, n=3, T0): C (C = all results conform to specifications)
pH (validation batches, 25 mg ascorbic acid, 53.3-74.4 mCi, 5.03-6.92 mCi/mL, GE Liquid target, n=3, T4 (4 h)): C (C = all results conform to specifications)
pH (validation batches, 25 mg ascorbic acid, 65.0-66.4 mCi, 5.74-6.15 mCi/mL, EZAG GalliaPharm, n=3, T0): C (C = all results conform to specifications)
pH (validation batches, 25 mg ascorbic acid, 65.0-66.4 mCi, 5.74-6.15 mCi/mL, EZAG GalliaPharm, n=3, T4 (4 h)): C (C = all results conform to specifications)
pH (validation batches, 25 mg ascorbic acid, 537-551 mCi, 50.2-51.6 mCi/mL, GE Solid Target, n=3, T0): C (C = all results conform to specifications)
pH (validation batches, 25 mg ascorbic acid, 537-551 mCi, 50.2-51.6 mCi/mL, GE Solid Target, n=3, T6 (6 h)): C (C = all results conform to specifications)
pH (validation batches, 25 mg ascorbic acid, 555-564 mCi, 51.1-52.7 mCi/mL, ARTMS Solid Target, n=3, T0): C (C = all results conform to specifications)
pH (validation batches, 25 mg ascorbic acid, 555-564 mCi, 51.1-52.7 mCi/mL, ARTMS Solid Target, n=3, T6 (6 h)): C (C = all results conform to specifications)
